Experimental data taken from the supplement of paper PMC12317010.
Structures can show the parent of a compound that is named as a salt. Blank lines part the entries; values can stand above or below the compound they belong to.

Assay: collision cross section in nitrogen (drift tube, single-field); higher = larger gas-phase ion size
[1] = ion type: [M-H], ion source: ESI, ion mode: Negative
[2] = ion type: [M+H], ion source: ESI, ion mode: Positive
[3] = ion type: [M+Na], ion source: ESI, ion mode: Positive
[4] = ion type: [M+H], ion source: APCI, ion mode: Positive
[5] = ion type: [M+], ion source: APCI, ion mode: Positive
[6] = ion source: APCI, ion mode: Positive, ion type: [M]+ (permanent cation)
[7] = ion source: ESI, ion mode: Positive, ion type: [M]+ (permanent cation)
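Further: chemical standards at 10 µM analysed by drift tube IMS-QTOF MS in about 3.95 torr nitrogen, mean of duplicate injections differing ≤1%, mass error below 10 ppm.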

- collision cross section in nitrogen [4]: 191.5 Å²
- collision cross section in nitrogen [2]: 193.1 Å²
- collision cross section in nitrogen [3]: 194.4 Å²
Structure (SMILES): Cc1ccc(C2OC[C@@H]3OC(c4ccc(C)cc4)O[C@H]([C@H](O)CO)[C@@H]3O2)cc1 (stereo partly specified) [Di-p-methylbenzylidenesorbitol]

- collision cross section in nitrogen [2]: 175.5 Å²
- collision cross section in nitrogen [3]: 179.4 Å²
Structure (SMILES): CC(=O)Nc1c(I)c(NC(C)=O)c(I)c(C(=O)O)c1I [Diatrizoate sodium]

- collision cross section in nitrogen [2]: 179.4 Å²
- collision cross section in nitrogen [3]: 183.6 Å²
Structure (SMILES): CC(=O)Nc1c(I)c(NC(C)=O)c(I)c(C(=O)O)c1I [Diatrizoic acid]

- collision cross section in nitrogen [5]: 160 Å²
Structure (SMILES): c1ccc2c(c1)ccc1cc3c(ccc4ccccc43)cc12 [Dibenz[a,h]anthracene]

- collision cross section in nitrogen [3]: 180.8 Å²
Structure (SMILES): CCCCOC(=O)CCCCC(=O)OCCCC [Dibutyl adipate]

- collision cross section in nitrogen [3]: 191.2 Å²
- collision cross section in nitrogen [1]: 176 Å²
Structure (SMILES): CCCCOC(=O)CCCCCCCC(=O)OCCCC [Dibutyl azelate]

- collision cross section in nitrogen [3]: 193.5 Å²
Structure (SMILES): CCCCOC(=O)CCCCCCCCC(=O)OCCCC [Dibutyl decanedioate]

- collision cross section in nitrogen [1]: 153.5 Å²
Structure (SMILES): O=c1[nH]cnc2c1ncn2[C@H]1CC[C@@H](CO)O1 [Didanosine]

- collision cross section in nitrogen [3]: 177.1 Å²
- collision cross section in nitrogen [1]: 171.9 Å²
Structure (SMILES): CCOc1ccc(NC(=O)OC(C)C)cc1OCC [Diethofencarb]

- collision cross section in nitrogen [3]: 171.5 Å²
Structure (SMILES): CCOC(=O)CCCCCCCCC(=O)OCC [Diethyl decanedioate]

- collision cross section in nitrogen [3]: 146.8 Å²
Structure (SMILES): CCOC=C(C(=O)OCC)C(=O)OCC [Diethyl ethoxymethylenemalonate]

- collision cross section in nitrogen [3]: 150.1 Å²
Structure (SMILES): CCCCOCCOCCOC(C)=O [Diethylene glycol monobutyl ether acetate]

- collision cross section in nitrogen [4]: 140.6 Å²
- collision cross section in nitrogen [2]: 141.3 Å²
- collision cross section in nitrogen [3]: 145.3 Å²
Structure (SMILES): CCc1c(C)cc(N)c(CC)c1N [Diethylmethylbenzenediamine]

- collision cross section in nitrogen [3]: 193.9 Å²
Structure (SMILES): CCC(=O)Oc1ccc(/C(CC)=C(\CC)c2ccc(OC(=O)CC)cc2)cc1 [Diethylstilbestrol dipropionate]

- collision cross section in nitrogen [1]: 176.2 Å²
Structure (SMILES): CC/C(=C(/CC)c1ccc(O)cc1)c1ccc(O)cc1 [Diethylstilbestrol]

- collision cross section in nitrogen [4]: 187.8 Å²
- collision cross section in nitrogen [2]: 187.4 Å²
Structure (SMILES): COc1ccc(-n2nc(C(F)F)cc2-c2ccc(S(C)=O)cc2)cc1 (stereo unspecified) [Difpas-pyrazole]

- collision cross section in nitrogen [3]: 209.9 Å²
Structure (SMILES): CCCCCCCOC(=O)c1ccccc1C(=O)OCCCCCCC [Diheptyl phthalate]

- collision cross section in nitrogen [3]: 202.5 Å²
Structure (SMILES): CCCCCCOC(=O)CCCCC(=O)OCCCCCC [Dihexyl hexanedioate]

- collision cross section in nitrogen [3]: 210.8 Å²
Structure (SMILES): CCCCCCOC(=O)CCCCCCCC(=O)OCCCCCC [Dihexyl nonanedioate]

- collision cross section in nitrogen [3]: 179.8 Å²
Structure (SMILES): CC(C)COC(=O)CCCCC(=O)OCC(C)C [Diisobutyl adipate]

- collision cross section in nitrogen [1]: 139.3 Å²
Structure (SMILES): CC(C)(C)c1n[nH]c(=O)n(N)c1=O [Diketometribuzin]

Second part, the compound before the results:

Structure (SMILES): C[C@@H]1C[C@H]2[C@@H]3CCC4=CC(=O)C=C[C@]4(C)[C@@]3(F)[C@@H](O)C[C@]2(C)[C@@]1(O)C(=O)COP(=O)(O)O [Dexamethasone sodium phosphate]
- collision cross section in nitrogen [1]: 201 Å²

Structure (SMILES): C[C@@H]1C[C@H]2[C@@H]3CCC4=CC(=O)C=C[C@]4(C)[C@@]3(F)[C@@H](O)C[C@]2(C)[C@@]1(O)C(=O)CO [Dexamethasone]
- collision cross section in nitrogen [2]: 177.6 Å²
- collision cross section in nitrogen [3]: 216.8 Å²

Structure (SMILES): COc1ccc2c(c1)[C@]13CCCC[C@@H]1[C@H](C2)N(C)CC3 [Dextromethorphan hydrobromide]
- collision cross section in nitrogen [4]: 166.1 Å²
- collision cross section in nitrogen [2]: 166.7 Å²

Structure (SMILES): CCCCC(CC)COC(=O)c1ccccc1C(=O)OCC(CC)CCCC (stereo unspecified) [Di(2-ethylhexyl) phthalate]
- collision cross section in nitrogen [3]: 215.9 Å²

Structure (SMILES): COCCOC(=O)c1ccccc1C(=O)OCCOC [Di(2-methoxyethyl) phthalate]
- collision cross section in nitrogen [3]: 161.7 Å²

Structure (SMILES): C=C(C)C(=O)OCCOCCOC(=O)C(=C)C [Di(ethylene glycol) dimethacrylate]
- collision cross section in nitrogen [3]: 159.5 Å²

Structure (SMILES): CCCCCCCCOC(=O)c1ccccc1C(=O)OCCCCCCCC [Di-n-octyl phthalate]
- collision cross section in nitrogen [3]: 214.6 Å²

Structure (SMILES): CCCOC(=O)c1ccccc1C(=O)OCCC [Di-n-propylphthalate]
- collision cross section in nitrogen [3]: 171.5 Å²

Structure (SMILES): C=CC(=O)NC(C)(C)CC(C)=O [Diacetone acrylamide]
- collision cross section in nitrogen [3]: 145.2 Å²

Structure (SMILES): C=CCOC(=O)c1ccccc1C(=O)OCC=C [Diallyl phthalate]
- collision cross section in nitrogen [3]: 159 Å²

Structure (SMILES): CCOP(=S)(OCC)Oc1cc(C)nc(C(C)C)n1 [Diazinon]
- collision cross section in nitrogen [4]: 173.5 Å²
- collision cross section in nitrogen [2]: 173.7 Å²

Structure (SMILES): c1ccc(N=NNc2ccccc2)cc1 [Diazoaminobenzene]
- collision cross section in nitrogen [2]: 147 Å²

Structure (SMILES): O=C1C(N(CO)C(=O)NCO)N(CO)C(=O)N1CO (stereo unspecified) [Diazolidinyl urea]
- collision cross section in nitrogen [4]: 162.8 Å²

Structure (SMILES): c1ccc2c(c1)sc1ccccc12 [Dibenzothiophene]
- collision cross section in nitrogen [5]: 130.2 Å²

Structure (SMILES): c1ccc(CNCc2ccccc2)cc1 [Dibenzylamine]
- collision cross section in nitrogen [4]: 150.8 Å²
- collision cross section in nitrogen [2]: 149.6 Å²

Structure (SMILES): CCCCOC(=O)c1ccccc1C(=O)OCCCC [Dibutyl 1,2-benzenedicarboxylate]
- collision cross section in nitrogen [3]: 182.9 Å²

Structure (SMILES): CCCCOP(=O)(CCCC)OCCCC [Dibutyl butylphosphonate]
- collision cross section in nitrogen [3]: 181.8 Å²

Structure (SMILES): Nc1c(Cl)cc([N+](=O)[O-])cc1Cl [Dichloran]
- collision cross section in nitrogen [1]: 131 Å²

Structure (SMILES): Oc1ccc(Cl)cc1Cc1cc(Cl)ccc1O [Dichlorophen]
- collision cross section in nitrogen [1]: 155.8 Å²

Structure (SMILES): CCOc1nc(F)cc2nc(S(=O)(=O)Nc3c(Cl)cccc3Cl)nn12 [Diclosulam]
- collision cross section in nitrogen [4]: 184.6 Å²
- collision cross section in nitrogen [2]: 183.5 Å²
- collision cross section in nitrogen [3]: 194 Å²
- collision cross section in nitrogen [1]: 183 Å²

Structure (SMILES): COP(=O)(OC)O/C(C)=C/C(=O)N(C)C [Dicrotophos]
- collision cross section in nitrogen [4]: 150.2 Å²
- collision cross section in nitrogen [3]: 153.2 Å²

Structure (SMILES): O=C(CC(C(=O)OC1CCCCC1)S(=O)(=O)O)OC1CCCCC1 (stereo unspecified) [Dicyclohexyl sodium sulfosuccinate]
- collision cross section in nitrogen [1]: 188.4 Å²

Structure (SMILES): C1CCC(NC2CCCCC2)CC1 [Dicyclohexylamine]
- collision cross section in nitrogen [4]: 147.6 Å²
- collision cross section in nitrogen [2]: 146.9 Å²

Structure (SMILES): CCCCCCCCCC[N+](C)(C)CCCCCCCCCC [Didecyldimethylammonium chloride]
- collision cross section in nitrogen [6]: 208.2 Å²
- collision cross section in nitrogen [7]: 209.1 Å²

Structure (SMILES): CCCCCCCCCCCC[N+](C)(C)CCCCCCCCCCCC [Didodecyldimethylammonium bromide]
- collision cross section in nitrogen [7]: 225.6 Å²

Structure (SMILES): CCOP(=O)(CN(CCO)CCO)OCC [Diethyl (N,N-bis(2-hydroxyethyl)amino)methanephosphonate]
- collision cross section in nitrogen [4]: 153.5 Å²
- collision cross section in nitrogen [2]: 153.9 Å²
- collision cross section in nitrogen [3]: 156.5 Å²
- collision cross section in nitrogen [1]: 157.5 Å²

Structure (SMILES): CCOP(=O)(O)OCC [Diethyl hydrogen phosphate]
- collision cross section in nitrogen [1]: 129.2 Å²

Structure (SMILES): O=C(OCCOCCOC(=O)c1ccccc1)c1ccccc1 [Diethylene glycol dibenzoate]
- collision cross section in nitrogen [3]: 180.8 Å²

Structure (SMILES): Cn1c(-c2ccccc2)cc(-c2ccccc2)[n+]1C [Difenzoquat metilsulfate]
- collision cross section in nitrogen [6]: 160 Å²
- collision cross section in nitrogen [7]: 160.8 Å²

Structure (SMILES): O=C(NC(=O)c1c(F)cccc1F)Nc1ccc(Cl)cc1 [Diflubenzuron]
- collision cross section in nitrogen [3]: 177.4 Å²
- collision cross section in nitrogen [1]: 169.5 Å²

Structure (SMILES): O=C(Nc1ccc(F)cc1F)c1cccnc1Oc1cccc(C(F)(F)F)c1 [Diflufenican]
- collision cross section in nitrogen [4]: 184.7 Å²
- collision cross section in nitrogen [2]: 189.1 Å²
- collision cross section in nitrogen [1]: 180.6 Å²

Structure (SMILES): CC(=NNC(=O)Nc1cc(F)cc(F)c1)c1ncccc1C(=O)O [Diflufenzopyr-sodium]
- collision cross section in nitrogen [3]: 182.3 Å²

Structure (SMILES): CC(=NNC(=O)Nc1cc(F)cc(F)c1)c1ncccc1C(=O)O [Diflufenzopyr]
- collision cross section in nitrogen [3]: 181.6 Å²

Structure (SMILES): C[C@]12CC[C@H](O)C[C@H]1CC[C@@H]1[C@@H]2C[C@@H](O)[C@]2(C)[C@@H](C3=CC(=O)OC3)CC[C@]12O [Digoxigenin]
- collision cross section in nitrogen [3]: 220.7 Å²

Structure (SMILES): C[C@H]1O[C@@H](O[C@H]2[C@@H](O)C[C@H](O[C@H]3[C@@H](O)C[C@H](O[C@H]4CC[C@@]5(C)[C@H](CC[C@@H]6[C@@H]5C[C@@H](O)[C@]5(C)[C@@H](C7=CC(=O)OC7)CC[C@]65O)C4)O[C@@H]3C)O[C@@H]2C)C[C@H](O)[C@@H]1O [Digoxin]
- collision cross section in nitrogen [3]: 276.8 Å²
- collision cross section in nitrogen [1]: 269.7 Å²

Structure (SMILES): CCCCCCOC(=O)c1ccccc1C(=O)OCCCCCC [Dihexyl phthalate]
- collision cross section in nitrogen [3]: 202.6 Å²

Structure (SMILES): Cc1ccc(S(=O)(=O)C(I)I)cc1 [Diiodomethyl 4-methylphenyl sulfone]
- collision cross section in nitrogen [1]: 151.9 Å²

Structure (SMILES): CC(C)COC(=O)c1ccccc1C(=O)OCC(C)C [Diisobutyl phthalate]
- collision cross section in nitrogen [3]: 181.8 Å²

Structure (SMILES): CC(C)CCCCCCCOC(=O)c1ccccc1C(=O)OCCCCCCCC(C)C [Diisodecyl phthalate]
- collision cross section in nitrogen [3]: 226.5 Å²

Structure (SMILES): CC(C)CCCCCCOC(=O)CCCCC(=O)OCCCCCCC(C)C [Diisononyl adipate]
- collision cross section in nitrogen [3]: 219.4 Å²

Structure (SMILES): CC(C)CCCCCCOC(=O)C1CCCCC1C(=O)OCCCCCCC(C)C (stereo unspecified) [Diisononyl cyclohexane-1,2-dicarboxylate]
- collision cross section in nitrogen [3]: 220.8 Å²

Structure (SMILES): CC(O)CNCC(C)O (stereo unspecified) [Diisopropanolamine]
- collision cross section in nitrogen [2]: 128.2 Å²

Structure (SMILES): CC(C)OC(=O)c1ccccc1C(=O)OC(C)C [Diisopropyl phthalate]
- collision cross section in nitrogen [3]: 169.9 Å²
